According to PubChem BioAssay AID1963986 (Molecular Pharmacology Branch, DTP, NCI, 2024):

Test system: 171881-019-R-J1-PDC tumor spheroid viability
Assay: Anticancer human tumor 171881-019-R-J1-PDC patient-derived invasive breast carcinoma cell line growth inhibition [PI3K]
Conditions: spheroids with HUVEC and MSC; for IC50: curve of first compound; for viability, T/C: stronger effect = lower value
Outline: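 High-throughput combination screen: PI3K inhibitors crossed with targeted small molecules on complex spheroids of tumor cells, HUVEC and MSCs at 37 degrees C, 5% CO2. Top concentration was at or near clinical Cmax (otherwise 10 microM), with half-log decrements.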
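Also: spheroids exposed to compound for 7 days before viability read.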
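For viability, T/C in this document: 100% = DMSO vehicle-treated spheroids.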

Compound: CNC(=O)c1ccc(N2C(=S)N(c3ccc(C#N)c(C(F)(F)F)c3)C(=O)C2(C)C)cc1F + COc1c(OCCCN2CCOCC2)ccc2c3n(c(=NC(=O)c4cnc(N)nc4)nc12)CCN3
- IC50 (second compound 0.00316 µM): > 10000 nM
- IC50 (second compound 0.01 µM): < 31.6 nM
- IC50 (second compound 0.0316 µM): < 31.6 nM
- IC50 (second compound 0.1 µM): < 31.6 nM
- IC50 (second compound 0.316 µM): < 31.6 nM
- IC50 (second compound 1 µM): < 31.6 nM
- viability, T/C (second compound 0.00316 µM, first compound 0.0316 µM): 64%
- viability, T/C (second compound 0.00316 µM, first compound 0.1 µM): 77.1%
- viability, T/C (second compound 0.00316 µM, first compound 0.316 µM): 68.7%
- viability, T/C (second compound 0.00316 µM, first compound 1 µM): 80.8%
- viability, T/C (second compound 0.00316 µM, first compound 3.16 µM): 62.1%
- viability, T/C (second compound 0.00316 µM, first compound 10 µM): 61.8%
- viability, T/C (second compound 0.01 µM, first compound 0.0316 µM): 46.4%
- viability, T/C (second compound 0.01 µM, first compound 0.1 µM): 48%
- viability, T/C (second compound 0.01 µM, first compound 0.316 µM): 53.4%
- viability, T/C (second compound 0.01 µM, first compound 1 µM): 50.3%
- viability, T/C (second compound 0.01 µM, first compound 3.16 µM): 43.5%
- viability, T/C (second compound 0.01 µM, first compound 10 µM): 43.5%
- viability, T/C (second compound 0.0316 µM, first compound 0.0316 µM): 28%
- viability, T/C (second compound 0.0316 µM, first compound 0.1 µM): 27.9%
- viability, T/C (second compound 0.0316 µM, first compound 0.316 µM): 28%
- viability, T/C (second compound 0.0316 µM, first compound 1 µM): 24.5%
- viability, T/C (second compound 0.0316 µM, first compound 3.16 µM): 25.8%
- viability, T/C (second compound 0.0316 µM, first compound 10 µM): 21.8%
- viability, T/C (second compound 0.1 µM, first compound 0.0316 µM): 9.2%
- viability, T/C (second compound 0.1 µM, first compound 0.1 µM): 7.58%
- viability, T/C (second compound 0.1 µM, first compound 0.316 µM): 7.75%
- viability, T/C (second compound 0.1 µM, first compound 1 µM): 8.13%
- viability, T/C (second compound 0.1 µM, first compound 3.16 µM): 8.01%
- viability, T/C (second compound 0.1 µM, first compound 10 µM): 7.49%
- viability, T/C (second compound 0.316 µM, first compound 0.0316 µM): 2.27%
- viability, T/C (second compound 0.316 µM, first compound 0.1 µM): 1.99%
- viability, T/C (second compound 0.316 µM, first compound 0.316 µM): 2.25%
- viability, T/C (second compound 0.316 µM, first compound 1 µM): 2.17%
- viability, T/C (second compound 0.316 µM, first compound 3.16 µM): 2.25%
- viability, T/C (second compound 0.316 µM, first compound 10 µM): 3.05%
- viability, T/C (second compound 1 µM, first compound 0.0316 µM): 1.38%
- viability, T/C (second compound 1 µM, first compound 0.1 µM): 1.14%
- viability, T/C (second compound 1 µM, first compound 0.316 µM): 1.18%
- viability, T/C (second compound 1 µM, first compound 1 µM): 1.73%
- viability, T/C (second compound 1 µM, first compound 3.16 µM): 1.02%
- viability, T/C (second compound 1 µM, first compound 10 µM): 1.64%

Compound: Cn1cnc2c(F)c(Nc3ccc(Br)cc3Cl)c(C(=O)NOCCO)cc21 + COc1c(OCCCN2CCOCC2)ccc2c3n(c(=NC(=O)c4cnc(N)nc4)nc12)CCN3
- IC50 (second compound 0.00316 µM): 59 nM
- IC50 (second compound 0.01 µM): < 9.49 nM
- IC50 (second compound 0.0316 µM): < 9.49 nM
- IC50 (second compound 0.1 µM): < 9.49 nM
- IC50 (second compound 0.316 µM): < 9.49 nM
- IC50 (second compound 1 µM): < 9.49 nM
- viability, T/C (second compound 0.00316 µM, first compound 0.00949 µM): 55.7%
- viability, T/C (second compound 0.00316 µM, first compound 0.03 µM): 59.1%
- viability, T/C (second compound 0.00316 µM, first compound 0.0949 µM): 43.1%
- viability, T/C (second compound 0.00316 µM, first compound 0.3 µM): 37.1%
- viability, T/C (second compound 0.00316 µM, first compound 0.949 µM): 21.8%
- viability, T/C (second compound 0.00316 µM, first compound 3 µM): 9.21%
- viability, T/C (second compound 0.01 µM, first compound 0.00949 µM): 39.5%
- viability, T/C (second compound 0.01 µM, first compound 0.03 µM): 39.4%
- viability, T/C (second compound 0.01 µM, first compound 0.0949 µM): 31.9%
- viability, T/C (second compound 0.01 µM, first compound 0.3 µM): 24.2%
- viability, T/C (second compound 0.01 µM, first compound 0.949 µM): 14%
- viability, T/C (second compound 0.01 µM, first compound 3 µM): 4.9%
- viability, T/C (second compound 0.0316 µM, first compound 0.00949 µM): 20.8%
- viability, T/C (second compound 0.0316 µM, first compound 0.03 µM): 18.8%
- viability, T/C (second compound 0.0316 µM, first compound 0.0949 µM): 16.9%
- viability, T/C (second compound 0.0316 µM, first compound 0.3 µM): 10.5%
- viability, T/C (second compound 0.0316 µM, first compound 0.949 µM): 6.05%
- viability, T/C (second compound 0.0316 µM, first compound 3 µM): 1.88%
- viability, T/C (second compound 0.1 µM, first compound 0.00949 µM): 6.77%
- viability, T/C (second compound 0.1 µM, first compound 0.03 µM): 5.8%
- viability, T/C (second compound 0.1 µM, first compound 0.0949 µM): 4.51%
- viability, T/C (second compound 0.1 µM, first compound 0.3 µM): 2.81%
- viability, T/C (second compound 0.1 µM, first compound 0.949 µM): 1.28%
- viability, T/C (second compound 0.1 µM, first compound 3 µM): 0.8%
- viability, T/C (second compound 0.316 µM, first compound 0.00949 µM): 1.87%
- viability, T/C (second compound 0.316 µM, first compound 0.03 µM): 2.04%
- viability, T/C (second compound 0.316 µM, first compound 0.0949 µM): 1.3%
- viability, T/C (second compound 0.316 µM, first compound 0.3 µM): 0.68%
- viability, T/C (second compound 0.316 µM, first compound 0.949 µM): 0.42%
- viability, T/C (second compound 0.316 µM, first compound 3 µM): 0.28%
- viability, T/C (second compound 1 µM, first compound 0.00949 µM): 0.82%
- viability, T/C (second compound 1 µM, first compound 0.03 µM): 1.37%
- viability, T/C (second compound 1 µM, first compound 0.0949 µM): 0.93%
- viability, T/C (second compound 1 µM, first compound 0.3 µM): 1.07%
- viability, T/C (second compound 1 µM, first compound 0.949 µM): 0.79%
- viability, T/C (second compound 1 µM, first compound 3 µM): 0.56%
